{"source": "patent US8269026B2", "about": "“Lupane derivatives useful for treating HIV” (priority 2008, dated 2012)", "data": [{"system": "HIV-1 (HIVIIIB) replication in MT2 cell line", "assay": "HIV-1 replication in MT2 cell line with and without 30% human serum (viral RT activity in supernatant)", "format": "cell-based", "settings": "Human immunodeficiency virus 1, MT2 cells, with 30% human serum, average IC50 if tested more than once, read-out: MT2 (HIVIIIB) with HS 30% IC50 range", "procedure,_shortened": "(§1)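 Read-out is supernatant reverse transcriptase activity on day 5 post-infection, giving IC50 and IC90. Compounds were titrated in complete medium ± 30% human serum, re-dosed after 3 days, on MT2 cells exposed for 3 h to HIVIIIB at MOI 0.5 then washed.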", "units": {"IC50": "nM"}, "values": [{"molecule": "CC(C)C1=C2C3CCC4[C@@]5(C)CC[C@H](OC(=O)CC(C)(C)C(=O)O)C(C)(C)C5CC[C@@]4(C)[C@]3(C)CC[C@@]2(NC(=O)NC2(c3ccccc3)CC2)CC1=O", "note": "(stereo partly drawn) [17-66, 3β-O-(3′,3′-Dimethylsuccinyl)-17β-[N′-(1-phenyl-cyclopropyl)-ureido]-21-oxolup-18-ene]", "IC50": "< 199"}, {"molecule": "CC(C)C1=C2C3CCC4[C@@]5(C)CC[C@H](OC(=O)CC(C)(C)C(=O)O)C(C)(C)C5CC[C@@]4(C)[C@]3(C)CC[C@@]2(NC(=O)O[C@@H]2CCN(C)C2)CC1=O", "note": "(stereo partly drawn) [20-13, 3β-O-(3′,3′-Dimethylsuccinyl)-17β-((R)-1-methylpyrrolidine-3-oxycarbonylamino)-21-oxolup-18-ene]", "IC50": "< 199"}, {"molecule": "CC(C)C1=C2C3CCC4[C@@]5(C)CC[C@H](OC(=O)CC(C)(C)C(=O)O)C(C)(C)C5CC[C@@]4(C)[C@]3(C)CC[C@@]2(NC(=O)N2CCC(F)(F)C2)CC1=O", "note": "(some centres unmarked) [17-58]", "IC50": "< 199"}, {"molecule": "CC(C)C1=C2C3CCC4[C@@]5(C)CC[C@H](OC(=O)CC(C)(C)C(=O)O)C(C)(C)C5CC[C@@]4(C)[C@]3(C)CC[C@@]2(NC(=O)N2CCC(N(C)C(=O)OC(C)(C)C)CC2)CC1=O", "note": "(stereo partly drawn) [17-36, 3β-O-(3′,3′-Dimethylsuccinyl)-17β-[(4-(tert-butyloxycarbonyl-methyl-amino)-piperidine-1-carbonyl)-amino]-21-oxolup-18-ene]", "IC50": "< 199"}, {"molecule": "Cc1nnc(C(=O)N[C@@]23CC[C@]4(C)C(CCC5[C@@]6(C)CC[C@H](OC(=O)[C@H]7CCC[C@@H](C(=O)O)C7)C(C)(C)C6CC[C@]54C)C2=C(C(C)C)C(=O)C3)o1", "note": "(stereo partly drawn) [19-81, 3β-O-(cis-Cyclohexane-3′-carboxylic acid-1′-carboxyl)-17β-[(5-methyl-[1,3,4]oxadiazol-2-carbonyl)-amino]-21-oxolup-18-ene]", "IC50": "200 to 999"}, {"molecule": "Cc1ncccc1C(=O)N[C@@]12CC[C@]3(C)[C@H](CC[C@@H]4[C@@]5(C)CC[C@H](OC(=O)CC(C)(C)C(=O)O)C(C)(C)[C@@H]5CC[C@]43C)C1=C(C(C)C)C(=O)C2", "note": "[19-46, 3β-O-(3′,3′-Dimethylsuccinyl)-17β-(2-methylpyridin-3-yl)amido-21-oxolup-18-ene]", "IC50": "< 199"}, {"molecule": "CC(C)C1=C2[C@H]3CC[C@@H]4[C@@]5(C)CC[C@H](OC(=O)CC(C)(C)C(=O)O)C(C)(C)[C@@H]5CC[C@@]4(C)[C@]3(C)CC[C@@]2(NS(C)(=O)=O)CC1=O", "note": "[18-1, 3β-O-(3′,3′-Dimethylsuccinyl)-17β-methylsulfonylamino-21-oxolup-18-ene]", "IC50": "< 199"}, {"molecule": "CC(C)C1=C2C3CCC4[C@@]5(C)CC[C@H](OC(=O)CC(C)(C)C(=O)O)C(C)(C)C5CC[C@@]4(C)[C@]3(C)CC[C@@]2(NC(=O)OC2CCN(C)CC2)CC1=O", "note": "(stereo partly drawn) [20-17, 3β-O-(3′,3′-Dimethylsuccinyl)-17β-(1-methylpiperidine-4-oxycarbonylamino)-21-oxolup-18-ene]", "IC50": "< 199"}, {"molecule": "CC(C)C1=C2[C@H]3CC[C@@H]4[C@@]5(C)CC[C@H](OC(=O)CC(C)(C)C(=O)O)C(C)(C)[C@@H]5CC[C@@]4(C)[C@]3(C)CC[C@@]2(NC(=O)[C@@H]2CCCCN2C)CC1=O", "note": "[19-65, 3β-O-(3′,3′-Dimethylsuccinyl)-17β-((S)-1-methylpiperidine-2-amido)-21-oxolup-18-ene]", "IC50": "< 199"}, {"molecule": "CC(C)C1=C2[C@H]3CC[C@@H]4[C@@]5(C)CC[C@H](OC(=O)CC(C)(C)C(=O)O)C(C)(C)[C@@H]5CC[C@@]4(C)[C@]3(C)CC[C@@]2(NC(=O)c2cncn2C)CC1=O", "note": "[19-18, 3β-O-(3′,3′-Dimethylsuccinyl)-17β-(1-methyl-1H-imidazole-5-amido)-21-oxolup-18-ene]", "IC50": "< 199"}, {"molecule": "CC(C)C1=C2C3CCC4[C@@]5(C)CC[C@H](OC(=O)CC(C)(C)C(=O)O)C(C)(C)C5CC[C@@]4(C)[C@]3(C)CC[C@@]2(NC(=O)N[C@@H](C)c2ccccc2)CC1=O", "note": "(stereo partly drawn) [17-61, 3β-O-(3′,3′-Dimethylsuccinyl)-17β-[N′-((S)-1-phenyl-ethyl)-ureido]-21-oxolup-18-ene]", "IC50": "< 199"}, {"molecule": "CC(C)C1=C2C3CCC4[C@@]5(C)CC[C@H](OC(=O)CC(C)(C)C(=O)O)C(C)(C)C5CC[C@@]4(C)[C@]3(C)CC[C@@]2(NC(=O)OCC2CCN(C)C2)CC1=O", "note": "(stereo partly drawn) [20-21, 3β-O-(3′,3′-Dimethylsuccinyl)-17β-(1-methylpyrrolidine-3-methoxycarbonylamino)-21-oxolup-18-ene]", "IC50": "< 199"}, {"molecule": "Cc1cnc(C(=O)N[C@@]23CC[C@]4(C)C(CCC5[C@@]6(C)CC[C@H](OC(=O)CC(C)(C)C(=O)O)C(C)(C)C6CC[C@]54C)C2=C(C(C)C)C(=O)C3)o1", "note": "(stereo partly drawn) [19-80, 3β-O-(3′,3′-Dimethylsuccinyl)-17β-(5-methyl-[1,3]-oxazole-2-amido)-21-oxolup-18-ene]", "IC50": "< 199"}, {"molecule": "CC(C)C1=C2C3CCC4[C@@]5(C)CC[C@H](OC(=O)CC(C)(C)C(=O)O)C(C)(C)C5CC[C@@]4(C)[C@]3(C)CC[C@@]2(NC(=O)C(C)N(C)C)CC1=O", "note": "(mixture of isomers) [19-59, 3β-O-(3′,3′-Dimethylsuccinyl)-17β-((RS)-2-dimethylamino-propionamido)-21-oxolup-18-ene]", "IC50": "< 199"}, {"molecule": "CC(C)C1=C2C3CCC4[C@@]5(C)CC[C@H](OC(=O)CC(C)(C)C(=O)O)C(C)(C)C5CC[C@@]4(C)[C@]3(C)CC[C@@]2(NC(=O)NC(C)c2ccccn2)CC1=O", "note": "(stereo partly drawn) [17-72, 3β-O-(3′,3′-Dimethylsuccinyl)-17β-[N′-(1-pyridin-2-yl-ethyl)-ureido]-21-oxolup-18-ene]", "IC50": "< 199"}, {"molecule": "CC(C)C1=C2[C@H]3CC[C@@H]4[C@@]5(C)CC[C@H](OC(=O)CC(C)(C)C(=O)O)C(C)(C)[C@@H]5CC[C@@]4(C)[C@]3(C)CC[C@@]2(NC(=O)c2ccncc2)CC1=O", "note": "[19-14, 3β-O-(3′,3′-Dimethylsuccinyl)-17β-(pyridin4-yl)amido-21-oxolup-18-ene]", "IC50": "< 199"}, {"molecule": "CC(C)C1=C2[C@H]3CC[C@@H]4[C@@]5(C)CC[C@H](OC(=O)CC(C)(C)C(=O)O)C(C)(C)[C@@H]5CC[C@@]4(C)[C@]3(C)CC[C@@]2(NC(=O)Nc2ncccn2)CC1=O", "note": "[17-32, 3β-O-(3′,3′-Dimethylsuccinyl)-17β-(N′-pyrimidin-2-yl-ureido)-21-oxolup-18-ene]", "IC50": "< 199"}, {"molecule": "CC(C)C1=C2C3CCC4[C@@]5(C)CC[C@H](OC(=O)CC(C)(C)C(=O)O)C(C)(C)C5CC[C@@]4(C)[C@]3(C)CC[C@@]2(NC(=O)OCC2CCCCC2)CC1=O", "note": "(stereo partly drawn) [20-7, 3β-O-(3′,3′-Dimethylsuccinyl)-17β-cyclohexylmethoxycarbonylamino-21-oxolup-18-ene]", "IC50": "< 199"}, {"molecule": "CC(C)C1=C2C3CCC4[C@@]5(C)CC[C@H](OC(=O)CC(C)(C)C(=O)O)C(C)(C)C5CC[C@@]4(C)[C@]3(C)CC[C@@]2(NC(=O)Cc2ccccc2)CC1=O", "note": "(stereo partly drawn) [19-29, 3β-O-(3′,3′-Dimethylsuccinyl)-17β-phenylacetamido-21-oxolup-18-ene]", "IC50": "< 199"}, {"molecule": "CC(C)C1=C2C3CCC4[C@@]5(C)CC[C@H](OC(=O)CC(C)(C)C(=O)O)C(C)(C)C5CC[C@@]4(C)[C@]3(C)CC[C@@]2(NC(=O)NC(C)(C)C(F)(F)F)CC1=O", "note": "(stereo partly drawn) [17-56, 3β-O-(3′,3′-Dimethylsuccinyl)-17β-[N′-(2,2,2-trifluoro-1,1-dimethyl-ethyl)ureido]-21-oxolup-18-ene]", "IC50": "< 199"}, {"molecule": "CC(C)C1=C2C3CCC4[C@@]5(C)CC[C@H](OC(=O)CC(C)(C)C(=O)O)C(C)(C)C5CC[C@@]4(C)[C@]3(C)CC[C@@]2(NC(=O)c2cncs2)CC1=O", "note": "(stereo partly drawn) [19-28, 3β-O-(3′,3′-Dimethylsuccinyl)-17β-(1,3-thiazole-5-amido)-21-oxolup-18-ene]", "IC50": "< 199"}, {"molecule": "CC(C)C1=C2[C@H]3CC[C@@H]4[C@@]5(C)CC[C@H](OC(=O)CC(C)(C)C(=O)O)C(C)(C)[C@@H]5CC[C@@]4(C)[C@]3(C)CC[C@@]2(NC(=O)NC2CN(C(=O)OC(C)(C)C)C2)CC1=O", "note": "[17-33, 3β-O-(3′,3′-Dimethylsuccinyl)-17β-[N′-(1-tert-butyloxycarbonyl-azetidin-3-yl)-ureido]-21-oxolup-18-ene]", "IC50": "< 199"}, {"molecule": "CC(C)C1=C2C3CCC4[C@@]5(C)CC[C@H](OC(=O)CC(C)(C)C(=O)O)C(C)(C)C5CC[C@@]4(C)[C@]3(C)CC[C@@]2(NC(=O)N[C@H](C)c2ccccc2)CC1=O", "note": "(stereo partly drawn) [17-62, 3β-O-(3′,3′-Dimethylsuccinyl)-17β-[N′-((R)-1-phenyl-ethyl)-ureido]-21-oxolup-18-ene]", "IC50": "< 199"}, {"molecule": "COC(=O)N[C@@]12CC[C@]3(C)[C@H](CC[C@@H]4[C@@]5(C)CC[C@H](OC(=O)CC(C)(C)C(=O)O)C(C)(C)[C@@H]5CC[C@]43C)C1=C(C(C)C)C(=O)C2", "note": "[20-1, 3β-O-(3′,3′-Dimethylsuccinyl)-17β-nnethoxycarbonylamino-21-oxolup-18-ene]", "IC50": "< 199"}, {"molecule": "CC(C)C1=C2C3CCC4[C@@]5(C)CC[C@H](OC(=O)CC(C)(C)C(=O)O)C(C)(C)C5CC[C@@]4(C)[C@]3(C)CC[C@@]2(NC(=O)c2nnc(C3CC3)o2)CC1=O", "note": "(stereo partly drawn) [19-62, 3β-O-(3′,3′-Dimethylsuccinyl)-17β-(5-cyclopropyl-[1,3,4]oxadiazole-2-amido)-21-oxolup-18-ene]", "IC50": "< 199"}, {"molecule": "CC(C)C1=C2C3CCC4[C@@]5(C)CC[C@H](OC(=O)CC(C)(C)C(=O)O)C(C)(C)C5CC[C@@]4(C)[C@]3(C)CC[C@@]2(NC(=O)Nc2cccnc2)CC1=O", "note": "(stereo partly drawn) [17-6, 3β-O-(3′,3′-Dimethylsuccinyl)-17β-[N′-(pyridin-3-yl)ureido]-21-oxolup-18-ene]", "IC50": "< 199"}, {"molecule": "CC(C)NC(=O)N[C@@]12CC[C@]3(C)C(CCC4[C@@]5(C)CC[C@H](OC(=O)CC(C)(C)C(=O)O)C(C)(C)C5CC[C@]43C)C1=C(C(C)C)C(=O)C2", "note": "(stereo partly drawn) [17-4, 3β-O-(3′,3′-Dimethylsuccinyl)-17β-[N′-(isopropyl)ureido]-21-oxolup-18-ene]", "IC50": "< 199"}]}, {"system": "HIV-1 (HIVIIIB) replication in MT2 cell line", "assay": "HIV-1 replication in MT2 cell line with and without 30% human serum (viral RT activity in supernatant)", "format": "cell-based", "settings": "Human immunodeficiency virus 1, MT2 cells, without human serum, average IC50 if tested more than once, read-out: MT2 (HIVIIIB) IC50 range", "procedure,_shortened": "as §1", "units": {"IC50": "nM"}, "values": [{"molecule": "CC(C)C1=C2[C@H]3CC[C@@H]4[C@@]5(C)CC[C@H](OC(=O)CC(C)(C)C(=O)O)C(C)(C)[C@@H]5CC[C@@]4(C)[C@]3(C)CC[C@@]2(NS(C)(=O)=O)CC1=O", "note": "[18-1, 3β-O-(3′,3′-Dimethylsuccinyl)-17β-methylsulfonylamino-21-oxolup-18-ene]", "IC50": "< 199"}, {"molecule": "CC(C)C1=C2C3CCC4[C@@]5(C)CC[C@H](OC(=O)CC(C)(C)C(=O)O)C(C)(C)C5CC[C@@]4(C)[C@]3(C)CC[C@@]2(NC(=O)OCC2CCCCC2)CC1=O", "note": "(stereo partly drawn) [20-7, 3β-O-(3′,3′-Dimethylsuccinyl)-17β-cyclohexylmethoxycarbonylamino-21-oxolup-18-ene]", "IC50": "< 199"}, {"molecule": "COC(=O)N[C@@]12CC[C@]3(C)[C@H](CC[C@@H]4[C@@]5(C)CC[C@H](OC(=O)CC(C)(C)C(=O)O)C(C)(C)[C@@H]5CC[C@]43C)C1=C(C(C)C)C(=O)C2", "note": "[20-1, 3β-O-(3′,3′-Dimethylsuccinyl)-17β-nnethoxycarbonylamino-21-oxolup-18-ene]", "IC50": "< 199"}, {"molecule": "CC(C)C1=C2C3CCC4[C@@]5(C)CC[C@H](OC(=O)CC(C)(C)C(=O)O)C(C)(C)C5CC[C@@]4(C)[C@]3(C)CC[C@@]2(NC(=O)Nc2cccnc2)CC1=O", "note": "(stereo partly drawn) [17-6, 3β-O-(3′,3′-Dimethylsuccinyl)-17β-[N′-(pyridin-3-yl)ureido]-21-oxolup-18-ene]", "IC50": "< 199"}, {"molecule": "CC(C)NC(=O)N[C@@]12CC[C@]3(C)C(CCC4[C@@]5(C)CC[C@H](OC(=O)CC(C)(C)C(=O)O)C(C)(C)C5CC[C@]43C)C1=C(C(C)C)C(=O)C2", "note": "(stereo partly drawn) [17-4, 3β-O-(3′,3′-Dimethylsuccinyl)-17β-[N′-(isopropyl)ureido]-21-oxolup-18-ene]", "IC50": "< 199"}]}]}
